According to patent publication US11396497B2, “Proteasome inhibitors” (New Mexico Tech University Research Park Corporation, priority 2018, dated 2022):
Where two headings read alike, the source gives them in different places.

Experiments:
[1] = biological target: T1, ChT-L activity of 26S proteasomes in intact MCF-7 cells (Homo sapiens, UniProt P28074); assay: Cell infiltration of PIs: proteasome inhibition in intact MCF7 cells; type: cell-based; conditions: intact MCF-7 cells treated, washed, lysed
T1 construct: endogenous in cells; host or cells: MCF7 cells (treated intact, then lysed)
T1 sequence (P28074 60-263): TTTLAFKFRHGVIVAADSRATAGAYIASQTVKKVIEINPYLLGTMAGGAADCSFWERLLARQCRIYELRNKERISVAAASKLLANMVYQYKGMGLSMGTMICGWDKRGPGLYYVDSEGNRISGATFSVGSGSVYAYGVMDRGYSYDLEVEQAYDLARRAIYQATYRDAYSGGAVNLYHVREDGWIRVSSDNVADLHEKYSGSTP
Protocol: 100 μL MCF7 cells at a concentration of 500,000 cells/mL were added to a 96 well microtiter plate and incubated overnight at 37° C. and 5% CO2 to allow cells to adhere at 100% confluency. The cells were treated and then incubated for at 37° C. and 5% CO2 for 1 hour as a standard time to allow for drug infiltration. […] The plate was rocked on ice for 1 hr and then 90 μL of cell lysate was transferred to a black 96 well microtiter plate. 10 μL of lysis buffer was added to the top of all wells containing treated cells and one set of control wells. 10 μL of 1 mM of compound 8 was added to the second set of control wells as a positive control for proteasome inhibition. The plate was then incubated at 37° C. for 15 minutes to allow for control drug binding. Chymotrypsin-like activity was then measured by adding 10 μL of 100 μM Suc-LLVY-AMC in lysis buffer to each well and then incubating for 1 h at 37° C. […] Standard deviation for cell infiltration was calculated by propagating the error from the two IC50 values.
The difference between proteasome inhibition within intact versus lysed cells was evaluated as a representative measure of PIs ability to infiltrate cells and access intracellular proteasomes. […] Assays were performed in biological triplicate, and the data points are reported with the corresponding standard deviations. […]

[2] = system: RPMI 8226 cells; assay: MTT assay cytotoxicity RPMI 8226; conditions: Homo sapiens
Protocol: The cells were incubated at 37° C. in a humidified atmosphere with 5% CO2.
100 μL of cells were added to each well of a 96 well microtiter plate at a concentration of 4×10^4 cells/mL and incubated overnight to allow proper adhesion. (RPMI 8226 cells were plated at 4×10^5 cells/mL). The cells were treated with the panel of test compounds at a series of concentrations, along with vehicle control DMSO and untreated cells as controls. After 48 h incubation, 20 μL of MTT reagent (3-(4,5-dimethylthiazol-2-yl)-2,5-diphenyltetrazolium bromide) in PBS (5 mg/mL) was added to each well of the plates. The plate was incubated for 2 h at 37° C. For adherent cell lines, the media was removed from each well of the plate and the resulting formazan crystals dissolved in 100 μL of DMSO. For RPMI 8226 cells, 200 ul of DMF/SDS mix (50% DMF. 10% w/v SDS pH<4) was used to solubilize the formazan crystals. Optical density (OD) at 490 nm was measured using a microplate reader. Cells treated with 1 μM phenyl arsine oxide (PAO) served as a positive cell-killing control. Technical replicates of these assays were performed in biological quadruplicate, and the three best values were used for analysis in order to eliminate outliers. Data presented are the average IC50 value calculated from at least 3 technical replicates with the corresponding standard deviation.

[3] = system: Jurkat cells; assay: Cell cycle assay (flow cytometry); type: cell-based, human
Protocol: Vybrant® DyeCycle™ Orange Stain was used for the cell cycle assay. The amount of fluorescence of DNA was used as a relative measure of a cell's stage in the cell cycle. 500,000 Jurkat cells were added to wells on a 24 well microtiter plate in 1 mL of supplemented RPMI media. The cells were then treated with Compound 1 (TABLE 2). Using the cells treated for 12 and 24 hours, stained DNA fluorescence was measured via flow cytometry. The cells were taken from each well, pelleted briefly, aspirated, resuspended in 300 μL of 2 μL/mL Vybrant® DyeCycle™ Orange Stain, incubated at 37° C. for 15 minutes, and analyzed by flow cytometry. Selecting whole cells based on forward and side scatter, stained DNA fluorescence was excited at 488 nm and measured at an emission wavelength of 585 nm, using amount of fluorescence as a means of distinguishing between populations of cells. Populations were identified as G1 for the peak associated with the lowest amount of fluorescence, S phase for increased fluorescence appearing as a shoulder off of the G1 peak, and G2/M for approximately 2 times the fluorescence as the G1 peak. Measurements were taken in biological triplicate and confirmed in technical triplicate.

[4] = system: ubiquitinated proteins in MCF7 cells; assay: Western blot of ubiquitinated proteins; type: cell-based, human
Protocol: The cells were incubated for 9.5 hrs at 37° C. and 5% CO2. After washing with PBS twice, cells were scraped, pelleted and lysed with CytoBuster™ Protein Extraction Reagent \ containing 10 μM compound 8, 10 μM Na3VO4, 0.017 mg/mL Aprotinin, 1 mM PMSF, and 1% Protease Inhibitor Cocktail. Thereafter 30 μg of protein in sample buffer (50 mM Tris-HCl, 2% SDS, 10% Glycerol, 1% β-mercaptoethanol, 12.5 mM EDTA, 0.02% Bromophenol Blue, pH 6.8) that had been boiled at 90° C. for 5 min, was electrophoresed using 6/8% SDS-PAGE, and the protein transferred to a […] PVDF membrane using a BioRad Trans-Blot® SD at 15 V for 17 minutes. The membrane was blocked with 1× casein buffer (Diluted 1:10 in water from casein blocking buffer 10×), and probed with either the polyclonal rabbit anti β-Actin (1:500) or the polyclonal rabbit anti-ubiquitin antibody (1:300), and stained with goat anti-rabbit IgG (H+L) HRP conjugate (1:3000) secondary antibodies. Antibody-recognized bands were visualized by a standard horseradish peroxidase chemiluminescent assay with an ECL kit.

[5] = system: MDA-MB-231 cells; assay: MTT assay cytotoxicity MDA-MB-231; conditions: Homo sapiens
[6] = biological target: T2, yeast proteasome yβ2 subunit (Saccharomyces cerevisiae, UniProt P25043+P25451); assay: Subunit selectivity, purified yeast proteasome yβ2; type: biochemical
T2 construct: measured using 8 μg/mL of purified yCP or iCP
Protocol: The compounds were diluted with lysis buffer; 10 μL of the compound-containing solution was added to the test wells at ten times the final concentration. […] The results are reported as the average of at least 3 technical replicates of IC50 values for proteasome inhibition.
Values and standard deviations were calculated from an assay performed in biological triplicate.

[7] = system: Jurkat cells; assay: Apoptosis assay (Annexin V-FITC, flow cytometry); type: cell-based, human
Protocol: Apoptosis assay: 1 mL of Jurkat cells, at a density of 500,000 cells per milliliter, was added to 12 wells of a 24 well microtiter plate. Cells were treated immediately using a serial dilution of the synthesized proteasome inhibitors, the benzyl ester of Cystargolide B and the belactosin-cystargolide hybrid molecule. 10 μM Paclitaxel and 0.2 μg/mL Doxorubicin hydrochloride were used as positive apoptosis controls and non-treated cells were used as a negative control. The cells were then incubated for 24 h at 37° C. and 5% CO2. The following day, Annexin V-FITC conjugate was used to assay for the expression of phosphatidyl serine on the […] of the cellular membrane. The cells were briefly pelleted, aspirated, and resuspended in 300 μL of a reaction mixture containing 0.2 μL/mL of the Annexin V FITC solution, 2 mM CaCl2 to enable binding, and 2 μg/mL propidium iodide as an indicator of cell permeability. Each sample was incubated at 37° C. for 20 minutes, and then analyzed by flow cytometry. Single, whole cells were selected based on the forward and the side-scatter. With an excitation of 488 nm Annexin V-FITC binding was identified using FL1 533 nm emission. Propidium iodide staining was selected based on FL2 585 nm emission. […] Measurements were taken in biological triplicate for each sample, and the results were confirmed in technical triplicate.

For CC[C@H](C)[C@@H]1C(=O)O[C@H]1C(=O)N[C@H](C(=O)N[C@H](C(=O)OCc1ccccc1)C(C)C)C(C)C [Compound 8, Benzyl ((2R,3S)-3-((S)-sec-butyl)-4-oxooxetane-2-carbonyl)-L-valyl-L-valinate], the “times more active than compound 1, proteasome inhibition in intact cells” value [1] was “approximately 10 times”, the IC50 ([2]; RPMI-8226, 48 h, read-out: Cytotoxicity RPMI 8226 IC50) was 201 ± 82 nM and the IC50 ([2]; RPMI-8226, read-out: Cytotoxicity RPMI 8226 IC50) was 192 ± 32.3 nM. For the same compound, the cell cycle arrest [3] was “cell cycle arrest in the G2/M phase”, the “accumulation of ubiquitinated proteins” value [4] was “accumulation of ubiquitinated proteins” and the IC50 ([5]; MDA-MB-231, 48 h, read-out: Cytotoxicity MDA-MB-231 IC50) was 359 ± 72 nM. For the same compound, the IC50 ([5]; MDA-MB-231, read-out: Cytotoxicity MDA-MB-231 IC50) was 380 ± 18.8 nM, the IC50 [6] was 26100 ± 2380 nM and the induction of apoptosis [7] was “induction of apoptosis”.
